Where a SMILES comes first, the peptide text is derived from it. [ ]: non-standard residue; d: D form. Tle = CC(C)(C)[C@H](N)C(=O)O; dDab = NCC[C@@H](N)C(=O)O; Orn = NCCC[C@H](N)C(=O)O; Dab = NCC[C@H](N)C(=O)O; Dap = NC[C@H](N)C(=O)O
Legend:
Format in all cases: cell-based
[1] = test system: Acinetobacter baumannii DSM 30008; settings: DSM 30008
How it was run: (§1)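 Peptide MICs were determined by NCCLS broth microdilution in cation-adjusted Mueller-Hinton II broth. Inoculum was about 10^6 CFU/mL, matched to 0.5 McFarland, with peptides in two-fold serial dilutions. The broth contained Polysorbate 80 at 0.002% final concentration.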

[2] = test system: Escherichia coli ATCC 25922; settings: ATCC 25922
How it was run: as §1

[3] = test system: Klebsiella pneumoniae ATCC 13883; settings: ATCC 13883
How it was run: as §1

[4] = test system: human red blood cells (hRBC); test: Hemolysis of human red blood cells; settings: red cells of human, 1 h, 100
Description: Stock solutions were kept at +4° C., light protected.
Percent hemolysis was calculated as follows: (OD540peptide/OD540H2O)×100%.

Acinetobacter baumannii DSM 30008 MIC [1] [µg/mL]	Escherichia coli ATCC 25922 MIC [2] [µg/mL]	Klebsiella pneumoniae ATCC 13883 MIC [3] [µg/mL]	SMILES	Hemolysis at 100 μg/mL [4] [%]
4	1	1	CC(C)C[C@@H]1NC(=O)[C@H]2CCCN2C(=O)[C@H](CO)NC(=O)[C@H](C)NC(=O)[C@H](C(C)(C)C)NC(=O)[C@H](CCN)NC(=O)[C@H](Cc2c[nH]c3ccccc23)NC(=O)[C@H](CCN)NC(=O)[C@@H](CCN)NC(=O)[C@H](CCCN)NC(=O)[C@H](CCN)NC(=O)[C@H](Cc2ccc(O)cc2)NC(=O)[C@H](CN)NC(=O)[C@H](Cc2ccccc2)NC1=O [Example 42, cyclo(-Phe-Dap-Tyr-Dab-Orn-^DDab-Dab-Trp-Dab-tBuGly-Ala-Ser-^DPro-Leu-)] (cyclo(AS[dP]LF[Dap]Y[Dab][Orn][dDab][Dab]W[Dab][Tle]))	1
1	1	0.25	C[C@@H]1NC(=O)[C@H](C(C)(C)C)NC(=O)[C@H](CCN)NC(=O)[C@H](Cc2c[nH]c3ccccc23)NC(=O)[C@H](CCN)NC(=O)[C@@H](CCN)NC(=O)[C@H](CCCN)NC(=O)[C@H](CCN)NC(=O)[C@H](Cc2ccc(O)cc2)NC(=O)[C@H](CN)NC(=O)[C@H](Cc2ccccc2)NC(=O)[C@H](Cc2ccccc2)NC(=O)[C@H]2CCCN2C(=O)[C@H](CO)NC1=O [Example 43, cyclo(-Phe-Dap-Tyr-Dab-Orn-^DDab-Dab-Trp-Dab-tBuGly-Ala-Ser-^DPro-Phe-)] (cyclo(AS[dP]FF[Dap]Y[Dab][Orn][dDab][Dab]W[Dab][Tle]))	1

SMILES	Acinetobacter baumannii DSM 30008 MIC [1] [µg/mL]	Escherichia coli ATCC 25922 MIC [2] [µg/mL]	Klebsiella pneumoniae ATCC 13883 MIC [3] [µg/mL]	Hemolysis at 100 μg/mL [4] [%]
CC[C@H](C)[C@@H]1NC(=O)[C@@H]2CCCN2C(=O)[C@H]2CCCN2C(=O)[C@H](Cc2ccc(O)cc2)NC(=O)[C@@H]2CSSC[C@H](NC1=O)C(=O)N[C@@H](Cc1ccc(O)cc1)C(=O)N[C@@H](CCN)C(=O)N[C@@H](CCCN)C(=O)N[C@H](CCN)C(=O)N[C@@H](CCN)C(=O)N[C@@H](CC(C)C)C(=O)N[C@@H](CCN)C(=O)N[C@@H](C(C)C)C(=O)N2 [Example 7, cyclo(-Ile-Cys-Tyr-Dab-Orn-^DDab-Dab-Leu-Dab-Val-Cys-Tyr-^DPro-Pro-)] (HELM PEPTIDE1{I.C.Y.[Dab].[Orn].[NCC[C@@H](N[*:1])C(=O)[*:2]].[Dab].L.[Dab].V.C.Y.[dP].P}$PEPTIDE1,PEPTIDE1,2:R3-11:R3|PEPTIDE1,PEPTIDE1,1:R1-14:R2$$$V2.0)	1	0.5	0.25	11
